From paper PMC8331180, “Development of antibacterial compounds that constrain evolutionary pathways to resistance” (eLife, 2021)
Numbering of substitutions follows the chain as printed. Values joined by “and” are separate entries in the source; they are usually repeats but may differ in a detail not shown here. Equal values may be shown once. Read-outs that look alike come from different tables or passages of the source.

How the values were obtained:
[1] = target: T1, E. coli DHFR P21L mutant (Escherichia coli, UniProt P0ABQ4, P21L); test: biochemical; settings: for Ki: Ki value, E. coli P21L DHFR, Ki converted from IC50; for inhibition at 200 µM: read-out: inhibition of DHFR catalytic activity
T1 construct: made in house
T1 sequence (P0ABQ4 1-159 P21L): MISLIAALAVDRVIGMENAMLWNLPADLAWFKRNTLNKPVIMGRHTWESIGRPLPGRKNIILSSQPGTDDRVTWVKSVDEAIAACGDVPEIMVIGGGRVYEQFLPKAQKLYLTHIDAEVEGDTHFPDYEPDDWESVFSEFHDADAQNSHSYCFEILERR

[2] = target: T2, E. coli DHFR A26T mutant (Escherichia coli, UniProt P0ABQ4, A26T); test: biochemical; settings: for Ki: Ki value, E. coli A26T DHFR, Ki converted from IC50; for inhibition at 200 µM: read-out: inhibition of DHFR catalytic activity
T2 construct: made in house
T2 sequence (P0ABQ4 1-159 A26T): T1 sequence (P0ABQ4 1-159 P21L) with L21P, A26T

[3] = target: T3, E. coli DHFR L28R mutant (Escherichia coli, UniProt P0ABQ4, L28R); test: biochemical; settings: for Ki: Ki value, E. coli L28R DHFR, Ki converted from IC50; for inhibition at 200 µM: read-out: inhibition of DHFR catalytic activity
T3 construct: made in house
T3 sequence (P0ABQ4 1-159 L28R): T1 sequence (P0ABQ4 1-159 P21L) with L21P, L28R

[4] = target: T4, E. coli WT DHFR (Escherichia coli, UniProt P0ABQ4); test: biochemical; settings: for Ki: Ki value, E. coli WT DHFR, Ki converted from IC50; for inhibition at 200 µM: read-out: inhibition of DHFR catalytic activity
T4 construct: made in house
T4 sequence (P0ABQ4 1-159): T1 sequence (P0ABQ4 1-159 P21L) with L21P

[5] = tested on: E. coli strain with chromosomal L28R DHFR; test: microbe, parasite or virus in culture; type: cell-based; settings: for IC50: Escherichia coli, read-out: Bacterial growth inhibition IC50
[6] = tested on: E. coli strain with chromosomal P21L DHFR; test: microbe, parasite or virus in culture; type: cell-based; settings: Escherichia coli, read-out: Bacterial growth inhibition IC50
[7] = target: T5, Human DHFR (Homo sapiens, UniProt P00374); test: biochemical; type: biochemical; settings: for Ki: Human WT DHFR, NT means no inhibition was detected at the maximal compound concentration tested
T5 construct: purchased Sigma Aldrich

[8] = tested on: WT E. coli strain; test: microbe, parasite or virus in culture; settings: Escherichia coli
[9] = tested on: E. coli strain with chromosomal A26T DHFR; test: microbe, parasite or virus in culture; type: cell-based; settings: Escherichia coli, read-out: Bacterial growth inhibition IC50
[10] = target: T6, E. coli DHFR P21L-L28R mutant (Escherichia coli, UniProt P0ABQ4, L28R/P21L); test: biochemical
T6 construct: made in house
T6 sequence (P0ABQ4 1-159 P21L/L28R): T1 sequence (P0ABQ4 1-159 P21L) with L28R

[11] = target: T7, E. coli DHFR P21L-A26T mutant (Escherichia coli, UniProt P0ABQ4, A26T/P21L); test: biochemical
T7 construct: made in house
T7 sequence (P0ABQ4 1-159 P21L/A26T): T1 sequence (P0ABQ4 1-159 P21L) with A26T

[12] = target: T8, E. coli DHFR A26T-L28R mutant (Escherichia coli, UniProt P0ABQ4, A26T/L28R); test: biochemical
T8 construct: made in house
T8 sequence (P0ABQ4 1-159 A26T/L28R): T1 sequence (P0ABQ4 1-159 P21L) with L21P, A26T, L28R

[13] = tested on: CD15-3-evolved E. coli strains; test: microbe, parasite or virus in culture; type: cell-based; settings: Escherichia coli
[14] = tested on: E. coli BW27783; type: cell-based
[15] = tested on: WT and evolved E. coli cells; test: DIC imaging of cell length; settings: 42°C
[16] = tested on: WT E. coli strain; settings: read-out: Bacterial growth inhibition IC50; WT (naive) E. coli strain, M9 medium, 37°C
[17] = single fixed concentration of 200 µM, P21L DHFR
[18] = single fixed concentration of 200 µM, A26T DHFR
[19] = single fixed concentration of 200 µM, L28R DHFR
[20] = single fixed concentration of 200 µM, WT DHFR
[21] = read-out: Bacterial growth inhibition IC50, WT (naive) E. coli strain, M9 medium, 37°C

Structure (SMILES) | IC50 [5] | IC50 [6] | Ki [1] | Ki [2] | Ki [3] | IC50 [8, 21] | IC50 [9] | Ki [4] | other results
CSc1nc2nc(N)nc(N)c2s1 [CD20] |  |  |  |  |  |  |  |  | inhibition of DHFR catalytic activity [1, 17]: showed inhibition; inhibition of DHFR catalytic activity [2, 18]: showed inhibition; inhibition of DHFR catalytic activity [3, 19]: not; inhibition of DHFR catalytic activity [4, 20]: showed inhibition
O=C(O)COc1c(Cl)cc(C=C2C(=O)NC(=O)NC2=O)cc1Cl [CD17-4] | 1860 µM |  |  |  |  |  |  |  | 
CCOc1cc(C=C2C(=O)NC(=O)NC2=O)ccc1OCC(=O)O [CD17] | 932 µM | 5050 µM | 3.7 µM | 6.7 µM and 6.73 µM | 3.7 µM and 3.65 µM | 1770 µM | 1920 µM | 8.2 µM and 8.18 µM | inhibition at 200 µM [1, 17]: > 30%; inhibition at 200 µM [2, 18]: > 30%; inhibition at 200 µM [3, 19]: > 30%; Ki [7]: 0.74 µM; Ki [10]: 1.37 µM; inhibition at 200 µM [4, 20]: > 30%; Ki [11]: 9.2 µM; Ki [12]: 2.04 µM
COc1cc([C@@H]2CC(c3c(O)[nH]c(=O)n(C)c3=O)=NN2)cc(OC)c1OC [CD15-6] | 167 µM | 159 µM |  |  |  | 175 µM | 172 µM |  | 
COc1ccc([C@@H]2CC(c3c(O)[nH]c(=O)n(C)c3=O)=NN2)cc1O [CD15-2] | 88 µM | 125 µM |  |  |  | 129 µM | 119 µM |  | 
COc1cc([C@H]2CC(=O)Nc3nc(N)[nH]c(=O)c32)ccc1O [CD08] |  |  | 3.2 ± 0.4 µM | 4.9 ± 1.4 µM | 3.1 ± 0.6 µM |  |  | 6.9 ± 0.6 µM | inhibition at 200 µM [1, 17]: > 30%; inhibition at 200 µM [2, 18]: > 30%; inhibition at 200 µM [3, 19]: > 30%; inhibition at 200 µM [4, 20]: > 30%
Cc1cc(NS(=O)(=O)c2ccc(N)cc2)no1 [Sulfamethoxazole, reference compound] |  |  |  |  |  |  |  |  | IC50 ([13]; CD15-3-evolved cells, cross resistance test, growth rate): 6.7 µM; IC50 [8]: 2.9 µM
Cn1c(=O)[nH]c(O)c(C2=NN[C@H](c3cccc4ccccc34)C2)c1=O [CD15-3] | 48 µM | 57 µM | 2.51 µM | 3.48 µM | 0.98 µM | 71.8 µM | 73 µM | 5.52 µM | effect of folA mix supplement on drug-induced growth inhibition ([14]; M9 media with folA mix): partially rescued; effect of inactive D27F DHFR overexpression on drug-induced growth inhibition ([14]; pBAD D27F, 0.005% arabinose): no growth recovery; effect of WT DHFR overexpression on drug-induced growth inhibition ([14]; pBAD folA, 0.005% arabinose): partially rescued growth; efficacy relative to TMP on L28R E. coli variant strain ([5]; growth inhibition IC50, better than TMP): about 2.4 fold; median cell length ([15]; WT cells treated at IC50 concentration, 4 hours): 2.34 µm; median cell length ([15]; evolved cells treated at IC50 concentration): 1.26 µm; IC50 ([13]; CD15-3-evolved strain Evolved 1, M9 media): 132 µM; IC50 ([13]; CD15-3-evolved strain Evolved 2, M9 media): 166 µM; IC50 ([13]; CD15-3-evolved strain Evolved 3, M9 media): 170 µM; IC50 ([13]; range over strains evolved under CD15-3, read-out: IC50 of evolved strains): 132 to 170 µM; inhibitory activity against human DHFR ([7]; CD15-3 17.56–200 µM, 25°C): no inhibitory activity; IC50 [16]: 72 µM; IC50 ([8]; read-out: IC50 against WT and TMP-resistant strains): 50 to 75 µM
COc1cc(Cc2cnc(N)nc2N)cc(OC)c1OC [TMP, trimethoprim, reference compound] |  |  |  |  |  |  |  |  | IC50 [8]: 0.4 µg/mL; IC50 ([8]; read-out: Bacterial growth inhibition IC50): 1.3 µM
Cn1c(=O)[nH]c(O)c(C2=NN[C@H](c3ccc4c(c3)OCO4)C2)c1=O [CD15-4] | 67 µM | 92 µM |  |  |  | 302 µM | 123 µM |  | 
C[C@H](Oc1ccc(C=C2C(=O)NC(=O)NC2=O)cc1)C(=O)O [CD17-3] | 907 µM | 2840 µM |  |  |  | 2950 µM | 2150 µM |  | 
COc1ccc([C@@H]2CC(c3c(O)[nH]c(=O)n(C)c3=O)=NN2)cc1OC [CD15] | 159 µM | 176 µM | 1.42 µM | 2.43 µM | 1.04 µM | 170 µM | 197 µM | 3.35 µM | inhibition at 200 µM [1, 17]: > 30%; inhibition at 200 µM [2, 18]: > 30%; inhibition at 200 µM [3, 19]: > 30%; Ki [7]: 0.38 µM; Ki [10]: 0.56 µM; inhibition at 200 µM [4, 20]: > 30%; Ki [11]: 3.26 µM; Ki [12]: 0.61 µM
